Measurements published in patent publication US20020081733A1, “METHOD TO PREPARE DRUG-RESISTANT, NON-MALIGNANT HEMATOPOIETIC CELLS” (priority 1998, published 2002).

Experiments:
[1] = system: CML 34^+DR^+ CFC and LTC-IC; experiment: MTX sensitivity of NL and CML CFC and LTC-IC (serum-free methylcellulose assay / LTC); assay type: cell-based, human; conditions: increasing MTX concentrations, FIG. 2A, 2B
Experimental: (§1) FIG. 2. Drug sensitivity of untransduced cells. A) NL and CML 34^+DR^+ cells were plated in a serum-free methylcellulose assay with increasing MTX concentrations to determine the MTX sensitivity of CFC. B) NL 34^+DR^− cells (LTC-IC) and CML 34^+DR^+ (Ph^+ LTC-IC) cells were incubated for 1 week in serum-free medium and cytokines with increasing MTX concentrations and then replated in LTC for 5 weeks. The number of MTX resistant LTC-IC was determined by replating LTC derived progeny in methylcellulose without […]. C) NL and CML 34^+DR^+ cells were plated directly in methylcellulose with increasing concentrations of taxol. D) NL 34^+DR^− cells (LTC-IC) and CML 34^+DR^+ (Ph^+LTC-IC) were plated in liquid culture for 7 days with increasing concentrations of taxol and then replated in LTC.
To determine the MTX sensitivity of normal (NL) and CML CFC cells, NL and CML 34^+DR^+ cells were plated in a serum-free methylcellulose assay with increasing MTX concentrations (FIG. 2A). To determine the MTX sensitivity of NL and CML LTC-IC cells, NL 34^+DR^− cells (LTC-IC) and CML 34^+DR^+ (Ph^+ LTC-IC) cells were also incubated for I week in serum-free medium and cytokines, with increasing MTX concentrations. The cells were then replated in LTC for 5 weeks. The number of MTX resistant LTC-IC was determined by replating LTC derived progeny in methylcellulose assay without MTX (FIG. 2B).

[2] = system: CML and NL progenitors; experiment: Taxol sensitivity of NL and CML cells (methylcellulose / liquid culture then LTC); assay type: cell-based, human; conditions: increasing concentrations of taxol; FIG. 2C, 2D
Experimental: as §1
To determine the taxol sensitivity of NL and CML cells, NL and CML 34^+DR^+ and 34^+DR^− cells were plated either in liquid culture for 7 days with increasing concentrations of taxol and then replated in LTC (FIG. 2D). NL and CML cells were also plated directly in methylcellulose with increasing concentrations of taxol (FIG. 2C).

| Structure (SMILES) | MTX sensitivity of CML 34+DR+ CFC and LTC-IC relative to NL 34+DR+ CFC and NL 34+DR− LTC-IC [1] | taxol sensitivity of CML versus NL progenitors [2] |
| --- | --- | --- |
| CN(Cc1cnc2nc(N)nc(N)c2n1)c1ccc(C(=O)N[C@@H](CCC(=O)O)C(=O)O)cc1 [MTX, methotrexate] | at least equally sensitive |  |
| CC(=O)O[C@H]1C(=O)[C@@]2(C)[C@H]([C@H](OC(=O)c3ccccc3)[C@]3(O)C[C@H](OC(=O)[C@H](O)[C@@H](NC(=O)c4ccccc4)c4ccccc4)C(C)=C1C3(C)C)[C@]1(OC(C)=O)CO[C@@H]1C[C@@H]2O [taxol] |  | equal sensitivity |
